From the supplement of paper PMC8960247
± gives the standard error.

Columns and labels:
621-102 (TSC2-deficient) = assay: relative viability vs DMSO; higher = less cytotoxic; details: serum: 10% FBS, 72 h
621-103 (TSC2-rescued) = assay: as above; details: serum: 10% FBS, 72 h
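Also: immortalized renal angiomyolipoma cells stably carrying empty vector or TSC2, dosed in 384-well plates in DMEM, viability normalized to vehicle-treated wells within each plate.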

SMILES	relative viability (621-102 (TSC2-deficient); 0.0001 µM)	relative viability (621-102 (TSC2-deficient); 0.001 µM)	relative viability (621-102 (TSC2-deficient); 0.01 µM)	relative viability (621-102 (TSC2-deficient); 0.1 µM)	relative viability (621-102 (TSC2-deficient); 1 µM)	relative viability (621-102 (TSC2-deficient); 10 µM)	relative viability (621-103 (TSC2-rescued); 0.0001 µM)	relative viability (621-103 (TSC2-rescued); 0.001 µM)	relative viability (621-103 (TSC2-rescued); 0.01 µM)	relative viability (621-103 (TSC2-rescued); 0.1 µM)	relative viability (621-103 (TSC2-rescued); 1 µM)	relative viability (621-103 (TSC2-rescued); 10 µM)
Cc1c(NC(=O)OC[C@@H]2COCCN2)cn2ncnc(Nc3ccc4c(cnn4Cc4cccc(F)c4)c3)c12	101 ± 2.7%	104 ± 2%	97.6 ± 2%	104.2 ± 0.79%	96.3 ± 2.8%	81.33 ± 0.65%	100.9 ± 0.54%	100 ± 1.2%	102 ± 1.5%	101.3 ± 0.88%	101 ± 1.9%	82.5 ± 5.9%
Cc1ccc(C(=O)N(CCCN)[C@@H](c2oc3cc(Cl)ccc3c(=O)c2Cc2ccccc2)C(C)C)cc1	61.7 ± 2.2%	67.7 ± 4.4%	75.95 ± 0.11%	69.9 ± 1.3%	80.2 ± 2.9%	1.36 ± 0.19%	40.45 ± 0.2%	46.1 ± 0.55%	59.1 ± 2%	50.6 ± 1.8%	47.3 ± 5.6%	1.36 ± 0.14%
Cc1ccc(NC(=O)c2cccc(N(C)C)c2)cc1NC(=O)c1ccc(O)cc1	90.2 ± 2%	102 ± 2.6%	100.2 ± 0.28%	109 ± 5%	109 ± 5.4%	92.1 ± 6%	104.9 ± 0.89%	102 ± 4%	101 ± 3.8%	101 ± 4.5%	94.6 ± 5%	98.9 ± 1.4%
Cc1cccc(-c2[nH]c(C(C)(C)C)nc2-c2ccc3nccnc3c2)n1	115.4 ± 0.35%	111 ± 2.5%	101.9 ± 0.66%	108.6 ± 0.23%	105 ± 2.2%	38.9 ± 2.9%	98.4 ± 1.4%	99.6 ± 2.7%	97.58 ± 0.26%	95.9 ± 2.7%	97.18 ± 0.62%	83.8 ± 1.5%
Cc1cnc(Nc2ccc(N3CCN(C)CC3)cc2)nc1Nc1cccc(S(=O)(=O)NC(C)(C)C)c1	116.1 ± 0.23%	120 ± 3.8%	109 ± 6.5%	107 ± 2.4%	80.4 ± 2.8%	3.65 ± 0.42%	102 ± 2.6%	98.71 ± 0.22%	95.5 ± 4.1%	97.4 ± 1.1%	51 ± 1.3%	1.33 ± 0.2%
Cn1c(N2CCCCS2(=O)=O)nc(C(=O)NCc2ccc(F)cc2)c(O)c1=O	104 ± 2.9%	106 ± 1.5%	106 ± 1.5%	102 ± 1.9%	108.8 ± 0.34%	99.97 ± 0.61%	99.8 ± 2.4%	105.9 ± 0.6%	101 ± 2.4%	101 ± 2.1%	100.8 ± 0.82%	100 ± 1.4%
Cn1cc(C2=C(c3ccc(Cl)cc3Cl)C(=O)NC2=O)c2ccccc21	107.48 ± 0.025%	103 ± 2.8%	98.2 ± 1.1%	90.4 ± 5.3%	96.83 ± 0.6%	97.5 ± 1.9%	77.6 ± 1.8%	84.2 ± 1.4%	89.8 ± 2.4%	92.5 ± 5.7%	80.2 ± 1.9%	76.2 ± 6.7%
N#Cc1c(O)c2c(-c3ccc(-c4ccccc4O)cc3)csc2[nH]c1=O	87.4 ± 2.6%	101.1 ± 0.29%	99.8 ± 4.8%	93.17 ± 0.38%	98.55 ± 0.91%	87.2 ± 3.2%	99.2 ± 3.3%	95.56 ± 0.75%	96.1 ± 3.5%	97.25 ± 0.34%	100.3 ± 0.89%	105 ± 3.5%
NC(=O)[C@@H](CCC(F)(F)F)N(Cc1ccc(-c2ncon2)cc1F)S(=O)(=O)c1ccc(Cl)cc1	109.7 ± 0.27%	108 ± 2.7%	124 ± 2.7%	116.1 ± 0.31%	117 ± 2.9%	108 ± 2.9%	103 ± 1.2%	102 ± 1.3%	101.6 ± 0.3%	103.4 ± 0.95%	103.76 ± 0.01%	102 ± 1.9%
NC(=O)c1ccc(-c2nc(-c3ccccn3)c(-c3ccc4c(c3)OCO4)[nH]2)cc1	111 ± 2.5%	116 ± 1.5%	114.2 ± 0.63%	117 ± 3.9%	112.6 ± 1%	106.7 ± 0.3%	102 ± 3.6%	108.5 ± 0.46%	111 ± 4.9%	98.44 ± 0.36%	98.1 ± 1.6%	94.07 ± 0.91%
NC(=O)c1cccc2[nH]c(-c3ccc(C4CCCN4)cc3F)nc12 (configuration not stated)	98.7 ± 1.1%	103.2 ± 0.25%	104 ± 4.6%	99.4 ± 3.5%	102 ± 4.6%	93.99 ± 0.45%	96.5 ± 3.4%	98.4 ± 1.8%	102 ± 2.6%	98.4 ± 4.6%	103 ± 2.3%	94 ± 1.4%
NC1(Cc2ccc(Cl)cc2)CCN(c2ncnc3[nH]ccc23)CC1	65.2 ± 2.3%	81 ± 1.2%	81.4 ± 1.9%	92.8 ± 5.6%	77.3 ± 3.3%	60.6 ± 1%	114 ± 2.5%	102 ± 1.4%	111 ± 2.4%	102 ± 5.5%	96.3 ± 4.4%	72 ± 0.83%
Nc1nccc(Oc2ccc(NC(=O)c3c[nH]cc(-c4ccc(F)cc4)c3=O)cc2F)c1Cl	94 ± 10%	118 ± 2.6%	111 ± 3.1%	103 ± 2.8%	102 ± 2.2%	94.5 ± 1.3%	90.9 ± 6.6%	94.6 ± 4.2%	102 ± 1.6%	104 ± 2%	98.9 ± 1.2%	98.15 ± 0.84%
O=C(NC[C@H](O)CO)c1ccncc1Nc1ccc(I)cc1F	100.3 ± 0.48%	92 ± 13%	101 ± 3.2%	97.01 ± 0.18%	90.5 ± 2%	55.7 ± 0.91%	101.8 ± 0.97%	104 ± 1.9%	105 ± 1.4%	103.5 ± 0.29%	99.919 ± 0.052%	78.4 ± 1.2%
O=C(NOCC1CC1)c1ccc(F)c(F)c1Nc1ccc(I)cc1Cl	101 ± 2.5%	98 ± 1.2%	104 ± 1.8%	97.3 ± 1.5%	98.4 ± 1.5%	81.4 ± 0.87%	97.56 ± 0.82%	92.3 ± 5.6%	98.9 ± 2.7%	99.9 ± 2.7%	96.7 ± 3.3%	74.9 ± 1.4%
O=C1NC(=O)/C(=C/c2ccc(-c3ccc(F)cc3O)o2)S1	111 ± 2.5%	109 ± 2.8%	102 ± 1.2%	96.7 ± 3.6%	106 ± 2.1%	90.8 ± 2.4%	92.9 ± 9.3%	95.3 ± 2.2%	96.95 ± 0.74%	101 ± 5.6%	88.2 ± 2%	108 ± 3.4%
O=C1NC(=O)/C(=C/c2ccc3c(c2)OC(F)(F)O3)S1	104 ± 2.5%	97.7 ± 4.8%	102 ± 1.9%	104.3 ± 0.58%	100.2 ± 0.23%	102.4 ± 0.35%	98.2 ± 7.7%	91.4 ± 7.6%	90.7 ± 1.1%	95.5 ± 2.7%	98.1 ± 6.7%	88.49 ± 0.37%
O=C1NC(=O)/C(=C\c2ccc3nccnc3c2)S1	106 ± 1.9%	114 ± 1.2%	120.5 ± 1.1%	108 ± 7.8%	105.2 ± 0.38%	110 ± 3.2%	100.2 ± 0.99%	96.5 ± 2.7%	98.02 ± 0.75%	100 ± 1.5%	99.5 ± 1.9%	98.8 ± 1.3%
OC(CN1CCN(c2cccc(Cl)c2)CC1)C(c1ccccc1)c1ccccc1 (configuration not stated)	102 ± 4.7%	93.4 ± 2.8%	104 ± 2.5%	95.9 ± 2.9%	102 ± 2.5%	89.25 ± 0.44%	83.9 ± 10%	85.7 ± 8.3%	95.1 ± 7.2%	98.58 ± 0.47%	83.3 ± 4.9%	79.1 ± 4.4%
Oc1c2ccccc2c2c3c(cccc13)N=N2	104.7 ± 0.13%	103 ± 4.5%	105 ± 1.1%	103 ± 1.3%	102 ± 4%	83.3 ± 2.2%	100.6 ± 0.42%	101 ± 1.9%	101.1 ± 0.35%	100.1 ± 0.67%	98.2 ± 1.6%	95.2 ± 2.7%
Oc1ccc(-c2nc(-c3ccc(F)cc3)c(-c3ccncc3)[nH]2)cc1	104 ± 3.7%	106.7 ± 0.78%	104 ± 3.6%	104.8 ± 0.31%	103.8 ± 0.12%	105 ± 2.4%	99.5 ± 0.91%	99.83 ± 0.79%	99.49 ± 0.82%	97.7 ± 1.4%	98.4 ± 1.1%	98.8 ± 1.3%
